# Experimental data reported in patent publication US11254686B1 (Corvus Pharmaceuticals, Inc., priority 2017, dated 2022).
# Tests used:
# Assay type in all cases: biochemical
# [1] = target: adenosine A1 receptor (Homo sapiens (Human), UniProt P30542); test: Adenosine receptor activity assay (Table 1), A1 cAMP
# [2] = target: adenosine A2A receptor (Homo sapiens (Human), UniProt P29274); test: Adenosine receptor activity assay (Table 1), A2A activity; details: cAMP; read-out: Ave A2A cAMP IC50
# [3] = target: adenosine A3 receptor (Homo sapiens (Human), UniProt P0DMS8); test: Adenosine receptor activity assay (Table 1), A3 cAMP
# [4] = target: adenosine A2B receptor (Homo sapiens (Human), UniProt P29275); test: Adenosine receptor activity assay (Table 1), A2B activity; details: for Ratio: A2A activity to the A2B activity, A2A/A2B; for IC50: cAMP, read-out: Ave A2B cAMP IC50
# Chain of adenosine A2B receptor (P29275 whole entry): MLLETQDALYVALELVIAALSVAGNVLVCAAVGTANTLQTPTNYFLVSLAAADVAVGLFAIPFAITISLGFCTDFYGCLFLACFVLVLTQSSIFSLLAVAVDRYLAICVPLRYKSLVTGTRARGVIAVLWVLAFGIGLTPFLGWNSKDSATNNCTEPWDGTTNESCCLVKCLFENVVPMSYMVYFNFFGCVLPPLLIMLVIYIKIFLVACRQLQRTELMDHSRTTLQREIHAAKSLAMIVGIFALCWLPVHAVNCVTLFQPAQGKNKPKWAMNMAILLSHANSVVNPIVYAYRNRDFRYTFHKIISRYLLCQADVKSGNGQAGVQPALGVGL
# Chain of adenosine A1 receptor (P30542 whole entry): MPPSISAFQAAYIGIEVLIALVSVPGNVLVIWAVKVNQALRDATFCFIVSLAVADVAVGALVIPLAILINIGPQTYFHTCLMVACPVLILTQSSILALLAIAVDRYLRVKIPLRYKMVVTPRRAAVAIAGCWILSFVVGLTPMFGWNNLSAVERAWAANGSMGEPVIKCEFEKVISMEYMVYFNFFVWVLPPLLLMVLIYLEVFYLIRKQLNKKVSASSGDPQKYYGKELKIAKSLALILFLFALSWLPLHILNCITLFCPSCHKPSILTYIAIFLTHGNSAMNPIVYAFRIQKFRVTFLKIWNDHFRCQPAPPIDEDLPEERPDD
# Chain of adenosine A3 receptor (P0DMS8 whole entry): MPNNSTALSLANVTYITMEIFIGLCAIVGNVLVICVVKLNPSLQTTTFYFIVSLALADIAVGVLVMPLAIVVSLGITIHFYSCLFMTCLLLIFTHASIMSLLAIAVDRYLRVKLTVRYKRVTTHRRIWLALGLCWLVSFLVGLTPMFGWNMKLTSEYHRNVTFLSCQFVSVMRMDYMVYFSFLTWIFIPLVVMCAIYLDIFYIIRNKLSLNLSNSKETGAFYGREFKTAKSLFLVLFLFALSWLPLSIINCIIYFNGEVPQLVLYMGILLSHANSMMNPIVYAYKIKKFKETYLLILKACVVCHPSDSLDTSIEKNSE
# Chain of adenosine A2A receptor (P29274 whole entry): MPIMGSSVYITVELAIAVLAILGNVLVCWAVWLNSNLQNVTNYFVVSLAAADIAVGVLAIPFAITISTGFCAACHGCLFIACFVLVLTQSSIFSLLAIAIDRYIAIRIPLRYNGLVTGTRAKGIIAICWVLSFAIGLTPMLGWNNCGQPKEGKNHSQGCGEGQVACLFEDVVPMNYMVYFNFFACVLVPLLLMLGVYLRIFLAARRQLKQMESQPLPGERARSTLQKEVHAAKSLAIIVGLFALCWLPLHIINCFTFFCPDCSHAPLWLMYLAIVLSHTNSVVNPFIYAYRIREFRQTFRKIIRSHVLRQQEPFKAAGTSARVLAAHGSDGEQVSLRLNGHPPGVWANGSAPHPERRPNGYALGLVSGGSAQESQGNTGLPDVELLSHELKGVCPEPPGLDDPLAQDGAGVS
IC50 [1],IC50 [2],IC50 [3],Ratio [4],IC50 [4],Structure (SMILES)
> 500 nM,10 to 50 nM,100 to 500 nM,1.90,< 10 nM,"C[C@H](Nc1nc(C(=O)N2CC(NC(=O)c3ccoc3)C2)c2sccc2n1)c1cncc(F)c1 [Example Z600, (S)—N-(1-(2-((1-(5-Fluoropyridin-3-yl)ethyl)amino)thieno[3,2-d]pyrimidine-4-carbonyl)azetidin-3-yl)furan-3-carboxamide]"
> 500 nM,10 to 50 nM,100 to 500 nM,0.90,10 to 50 nM,"C[C@H](Nc1nc(C(=O)N2CC(NC(=O)c3ccccc3)C2)c2sccc2n1)c1cncc(F)c1 [Example Z601, (S)—N-(1-(2-((1-(5-Fluoropyridin-3-yl)ethyl)amino)thieno[3,2-d]pyrimidine-4-carbonyl)azetidin-3-yl)benzamide]"
> 500 nM,< 10 nM,100 to 500 nM,1.00,< 10 nM,"C[C@H](Nc1nc(C(=O)N2CC(NC(=O)C3(C)CC3)C2)c2sccc2n1)c1cncc(F)c1 [Example Z603, (S)—N-(1-(2-((1-(5-Fluoropyridin-3-yl)ethyl)amino)thieno[3,2-d]pyrimidine-4-carbonyl)azetidin-3-yl)-1-methylcyclopropane-1-carboxamide]"
> 500 nM,< 10 nM,100 to 500 nM,0.88,< 10 nM,"C[C@H](Nc1nc(C(=O)N2CC(NC(=O)C34CC(C3)C4)C2)c2sccc2n1)c1cncc(F)c1 [Example Z604, (S)—N-(1-(2-((1-(5-Fluoropyridin-3-yl)ethyl)amino)thieno[3,2-d]pyrimidine-4-carbonyl)azetidin-3-yl)bicyclo[1.1.1]pentane-1-carboxamide]"
> 500 nM,< 10 nM,100 to 500 nM,0.77,< 10 nM,"C[C@H](Nc1nc(C(=O)N2CC(NC(=O)C3CCCC3)C2)c2sccc2n1)c1cncc(F)c1 [Example Z605, (S)—N-(1-(2-((1-(5-Fluoropyridin-3-yl)ethyl)amino)thieno[3,2-d]pyrimidine-4-carbonyl)azetidin-3-yl)cyclopentanecarboxamide]"
> 500 nM,< 10 nM,100 to 500 nM,0.47,< 10 nM,"C[C@H](Nc1nc(C(=O)N2CC(NC(=O)C(C)(C)C(F)(F)F)C2)c2sccc2n1)c1cncc(F)c1 [Example Z606, (S)-3,3,3-Trifluoro-N-(1-(2-((1-(5-fluoropyridin-3-yl)ethyl)amino)thieno[3,2-d]pyrimidine-4-carbonyl)azetidin-3-yl)-2,2-dimethylpropanamide]"
> 500 nM,50 to 100 nM,> 500 nM,4.49,10 to 50 nM,"C[C@H](Nc1nc(C(=O)N2CC(NC(=O)C3COC3)C2)c2sccc2n1)c1cncc(F)c1 [Example Z607, (S)—N-(1-(2-((1-(5-Fluoropyridin-3-yl)ethyl)amino)thieno[3,2-d]pyrimidine-4-carbonyl)azetidin-3-yl)oxetane-3-carboxamide]"
> 500 nM,< 10 nM,> 500 nM,0.42,10 to 50 nM,"C[C@H](Nc1nc(C(=O)N2CC(NC(=O)C3(C)CCOC3)C2)c2sccc2n1)c1cncc(F)c1 (stereo partly drawn) [Example Z608, N-(1-(2-(((S)-1-(5-Fluoropyridin-3-yl)ethyl)amino)thieno[3,2-d]pyrimidine-4-carbonyl)azetidin-3-yl)-3-methyltetrahydrofuran-3-carboxamide]"
> 500 nM,< 10 nM,100 to 500 nM,0.98,< 10 nM,"C[C@H](Nc1nc(C(=O)N2CC(NC(=O)C3(C(F)(F)F)CC3)C2)c2sccc2n1)c1cncc(F)c1 [Example Z609, (S)—N-(1-(2-((1-(5-Fluoropyridin-3-yl)ethyl)amino)thieno[3,2-d]pyrimidine-4-carbonyl)azetidin-3-yl)-1-(trifluoromethyl)cyclopropane-1-carboxamide]"
> 500 nM,< 10 nM,10 to 50 nM,0.24,< 10 nM,"C[C@H](Nc1nc(C(=O)N2CC(NC(=O)C3CCCCC3)C2)c2sccc2n1)c1cncc(F)c1 [Example Z610, (S)—N-(1-(2-((1-(5-Fluoropyridin-3-yl)ethyl)amino)thieno[3,2-d]pyrimidine-4-carbonyl)azetidin-3-yl)cyclohexanecarboxamide]"
> 500 nM,< 10 nM,100 to 500 nM,0.80,< 10 nM,"C[C@H](Nc1nc(C(=O)N2CC(NC(=O)NC(C)(C)C)C2)c2sccc2n1)c1cncc(F)c1 [Example Z611, (S)-1-(tert-Butyl)-3-(1-(2-((1-(5-fluoropyridin-3-yl)ethyl)amino)thieno[3,2-d]pyrimidine-4-carbonyl)azetidin-3-yl)urea]"
> 500 nM,10 to 50 nM,100 to 500 nM,1.02,10 to 50 nM,"C[C@H](Nc1nc(C(=O)N2CC(NC(=O)CCC3CCOCC3)C2)c2sccc2n1)c1cncc(F)c1 [Example Z612, (S)—N-(1-(2-((1-(5-Fluoropyridin-3-yl)ethyl)amino)thieno[3,2-d]pyrimidine-4-carbonyl)azetidin-3-yl)-3-(tetrahydro-2H-pyran-4-yl)propanamide]"
> 500 nM,< 10 nM,100 to 500 nM,2.55,< 10 nM,"C[C@H](Nc1nc(C(=O)N2CC(NC(=O)c3cccc(F)c3)C2)c2sccc2n1)c1cncc(F)c1 [Example Z613, (S)-3-Fluoro-N-(1-(2-((1-(5-fluoropyridin-3-yl)ethyl)amino)thieno[3,2-d]pyrimidine-4-carbonyl)azetidin-3-yl)benzamide]"
> 500 nM,< 10 nM,100 to 500 nM,1.76,< 10 nM,"C[C@H](Nc1nc(C(=O)N2CC(NC(=O)c3ccccc3F)C2)c2sccc2n1)c1cncc(F)c1 [Example Z614, (S)-2-Fluoro-N-(1-(2-((1-(5-fluoropyridin-3-yl)ethyl)amino)thieno[3,2-d]pyrimidine-4-carbonyl)azetidin-3-yl)benzamide]"
> 500 nM,< 10 nM,100 to 500 nM,2.10,< 10 nM,"C[C@H](Nc1nc(C(=O)N2CC(NC(=O)c3cccc(Cl)c3)C2)c2sccc2n1)c1cncc(F)c1 [Example Z615, (S)-3-Chloro-N-(1-(2-((1-(5-fluoropyridin-3-yl)ethyl)amino)thieno[3,2-d]pyrimidine-4-carbonyl)azetidin-3-yl)benzamide]"
> 500 nM,10 to 50 nM,> 500 nM,4.32,< 10 nM,"C[C@H](Nc1nc(C(=O)N2CC(NC(=O)c3ccc(F)c(F)c3)C2)c2sccc2n1)c1cncc(F)c1 [Example Z616, (S)-3,4-Difluoro-N-(1-(2-((1-(5-fluoropyridin-3-yl)ethyl)amino)thieno[3,2-d]pyrimidine-4-carbonyl)azetidin-3-yl)benzamide]"
> 500 nM,10 to 50 nM,> 500 nM,3.67,< 10 nM,"C[C@H](Nc1nc(C(=O)N2CC(NC(=O)c3ccc(Cl)cc3)C2)c2sccc2n1)c1cncc(F)c1 [Example Z617, (S)-4-Chloro-N-(1-(2-((1-(5-fluoropyridin-3-yl)ethyl)amino)thieno[3,2-d]pyrimidine-4-carbonyl)azetidin-3-yl)benzamide]"
> 500 nM,10 to 50 nM,100 to 500 nM,1.31,10 to 50 nM,"C[C@H](Nc1nc(C(=O)N2CC(NC(=O)OC3CCCC3)C2)c2sccc2n1)c1cncc(F)c1 [Example Z618, Cyclopentyl (S)-(1-(2-((1-(5-fluoropyridin-3-yl)ethyl)amino)thieno[3,2-d]pyrimidine-4-carbonyl)azetidin-3-yl)carbamate]"
> 500 nM,50 to 100 nM,> 500 nM,6.42,10 to 50 nM,"C[C@H](Nc1nc(C(=O)N2CC(NC(=O)c3ccncc3)C2)c2sccc2n1)c1cncc(F)c1 [Example Z619, (S)—N-(1-(2-((1-(5-Fluoropyridin-3-yl)ethyl)amino)thieno[3,2-d]pyrimidine-4-carbonyl)azetidin-3-yl)isonicotinamide]"
> 500 nM,50 to 100 nM,> 500 nM,3.94,10 to 50 nM,"C[C@H](Nc1nc(C(=O)N2CC(NC(=O)c3cccnc3)C2)c2sccc2n1)c1cncc(F)c1 [Example Z620, (S)—N-(1-(2-((1-(5-Fluoropyridin-3-yl)ethyl)amino)thieno[3,2d]pyrimidine-4-carbonyl)azetidin-3-yl)nicotinamide]"
> 500 nM,50 to 100 nM,< 10 nM,1.86,10 to 50 nM,"C[C@H](Nc1nc(C(=O)N2CC(C)(NC(=O)C3CC3)C2)c2sccc2n1)c1cncc(F)c1 [Example Z621, (S)—N-(1-(2-((1-(5-Fluoropyridin-3-yl)ethyl)amino)thieno[3,2-d]pyrimidine-4-carbonyl)-3-methylazetidin-3-yl)cyclopropanecarboxamide]"
> 500 nM,10 to 50 nM,> 500 nM,1.02,10 to 50 nM,"C[C@H](Nc1nc(C(=O)N2CC(NC(=O)C3CCOCC3)C2)c2sccc2n1)c1cncc(F)c1 [Example Z622, (S)—N-(1-(2-((1-(5-Fluoropyridin-3-yl)ethyl)amino)thieno[3,2-d]pyrimidine-4-carbonyl)azetidin-3-yl)tetrahydro-2H-pyran-4-carboxamide]"
